By Ki is commonly meant a measure of affinity in units of concentration, obtained from inhibition or displacement.

Experiment [1] has as its target HPK1 (Homo sapiens (Human), UniProt Q92918). The experiment is described as follows: biochemical. It is filed as binding.
Experiment [2] addresses HPK1 (Homo sapiens (Human), UniProt Q92918, S171E/T165E). The experiment is described as follows: biochemical.

The structures appear in SMILES notation.

For `C[C@H]1Cc2c(cncc2-c2cc(N)c3cnc(NC(=O)C4CC4)cc3c2)N1` [Compound 189, (S)—N-(8-amino-6-(2-methyl-2,3-dihydro-1H-pyrrolo[2,3-c]pyridin-4-yl)isoquinolin-3-yl)cyclopropanecarboxamide], at HPK1 [1], affinity was put at a Ki of 5.44 nM.

In the case of `Cc1c(N)cncc1-c1cc2cc(NC(=O)[C@@H]3C[C@H]3CC#N)ncc2c(N)c1Cl` (racemic) [Compound 209, (±)-trans-N-(8-amino-6-(5-amino-4-methylpyridin-3-yl)-7-chloroisoquinolin-3-yl)-2-(cyanomethyl)cyclopropanecarboxamide], the Ki at HPK1 [1] turned out to be 0.0405 nM.

Compound `Cc1ccncc1-c1cc2cc(Nc3cc4n(n3)CC(=O)N(C)CC43CC3)ncc2c(N)c1F` [Compound 228, 2′-((8-amino-7-fluoro-6-(4-methylpyridin-3-yl)isoquinolin-3-yl)amino)-6′-methyl-5′,6′-dihydrospiro[cyclopropane-1,4′-pyrazolo[1,5-d][1,4]diazepin]-7′(8′H)-one] displayed a Ki at HPK1 [2] of […].

On to `Cc1c(NC(C)C)cncc1-c1cc(N)c2cnc(NC(=O)[C@@H]3C[C@H]3C#N)cc2c1` (racemic) [Compound 186, (±)-trans-N-(8-amino-6-[4-methyl-5-[(propan-2-yl)amino]pyridin-3-yl]isoquinolin-3-yl)-2-cyanocyclopropane-1-carboxamide], for which the affinity on HPK1 [1], expressed as Ki, was 6.96 nM.

The values are drawn from patent US11566003B2, “Isoquinolines as inhibitors of HPK1” (priority 2017, dated 2023).
